SMILES strings stand for the structures. Where two headings read alike, the source gives them in different places.

In one data set the test system is ShHTL7-SMAX1 interaction. As to the kind of experiment: Yeast two-hybrid assay ShHTL7-SMAX1. The data set is classed as cell-based, Striga hermonthica. As to conditions: 200 μM. Here is the method:
To construct plasmids for yeast two-hybrid assays, the CDS of ShHTL7 and AtD14 were cloned into yeast expression vector pBrigde to generate BD-ShHTL7 and BD-AtD14, and the CDS of ShMAX2, AtMAX2, SMAX1 were cloned into pGADT7 to make Gal4 DNA activation domain (AD) constructs, respectively. Primers used for yeast expression vector construction are listed in Supplementary Table 6. Yeast two-hybrid assays were performed using the Yeastmaker Yeast Transformation System 2 (Clontech). In brief, Yeast AH109 cells were co-transformed with specific bait and prey constructs and coated on selective growth medium SD/-Leu-Trp for 3 days at 30 °C, pick the positive constructs into liquid selective growth medium SD/-Leu-Trp shaking for 36 h at 30 °C. Washed yeast cells three times and diluted, made sure OD600 reached 2.5, then serial 10-fold dilutions of yeast cultures were spotted onto selective growth mediums that were supplemented with different concentrations of rac-GR24 and tested molecules, respectively. All yeast transformants were grown on a selective growth medium at 30 °C for 3 days.

In the next data set the target is ShHTL7 (Striga hermonthica, UniProt A0A0M3PNA2). As to the kind of experiment: biochemical. Type of data set: binding. On the procedure: We used a sensitive, high-throughput Surface plasmon resonance (SPR) method to examine the binding affinities of the 51 candidates to the recombinant ShHTL7 protein, which was immobilized on the CM5 sensor chip. rac-GR24 was used as a positive control.
The interactions of small molecules with recombinant ShHTL7 were evaluated using the Biacore T200 system (GE Healthcare, USA) at 25 °C[47]. The purified ShHTL7 protein was immobilized on a CM5 sensor chip using the standard amine coupling procedure. […] PBS-P (10 mM phosphate buffer, 2.7 mM KCl, 137 mM NaCl, 0.05% Surfactant P20) containing 0.5% DMSO was used as the running buffer. For the screening experiments, candidates with different structures at 50 μM in the running buffer were injected individually at a flow rate of 30 μL min^−1. For binding affinity studies, compounds with different concentrations in running buffer were used. During the experiments, both the contact and dissociation times were set as 1 min. Data analysis was performed using the Biacore Evaluation Software (T200 Version 2.0). The affinity values (KD) were obtained by the kinetics analysis or the steady-state affinity method.

Data set [1] has as its system PaKAI2s (5 KAI2 protein homologs in P. aegyptiaca). The experiment in a line: YLG-based competition assay on KAI2 protein homologs of P. aegyptiaca. The data set is classed as biochemical, Phelipanche aegyptiaca. As to conditions: Supplementary Fig. 27. From the text:
In P. aegyptiaca, 5 KAI2s have been proposed as the SL receptors for the regulation of seed germination. […] The high sequence similarity may explain the consistency of these compounds in inducing germination in both S. hermonthica and P. aegyptiaca.
The excitation and emission wavelengths of YLG are 480 and 520 nm, respectively. We used a fluorescence spectrophotometer (CARY Eclipse) to detect the fluorescence intensity change of YLG during the enzymatic hydrolysis assay process. All the testing compounds and YLG were dissolved in DMSO and prepared as stock solutions just before use. […] The changes of fluorescence at 520 nm of each well were recorded every 1 min for 30 min. Using the reaction mixture without adding enzyme and tested compounds as the background control. After subtracting the background hydrolysis, a linear fluorescence increase in 8 min was used for further inspection. The IC50 values were determined via fitting relative inhibition percentages with the varying concentrations of compounds in Microsoft Excel.
Supplementary Fig. 27. Binding of compounds 4a, (R)- and (S)-4a, and 4g-i to the HTL proteins in S. hermonthica and KAI2 protein homologs in P. aegyptiaca. In the competitive inhibitory activity assay, YLG (3 µM) was used as the fluorogenic substrate. Error bar indicates SD (n = 3 biologically independent experiments).
(1 picture or pasted object on this page, not shown here)

The nature of data set [2]: Chemical reactivity analysis (HPLC, methanol/PBS pH 7.4). The data set is classed as physicochemical. As to conditions: for reactivity in methanol/PBS: 1:3 methanol and PBS (10 mM) pH 7.4. On the procedure: Chemical reactivity is an important factor in the bioactivity of natural and synthetic SLs.
One hundred twenty microliters of sample solution was added to a solution of PBS (10 mM, pH 7.4, 810 μL) and methanol (270 μL). The solution was stirred vigorously for 30 s and then transferred to HPLC vial, and the vial was stored at 26 ± 1 °C. […] The analytical column was Extend-C18 (4.6 mm × 150 mm × 5 μm). The mobile phases were CH3CN and H2O (containing 0.1% HCO2H), VCH3CN:VH2O = 50:50, with a flow rate of 1 mL/min, and an injection volume of 5 μL. The percentage of remaining compounds in the solution was calculated from the peak area. The half-life times (t1/2) of samples were calculated.

Setting [3] is: KAI2C, YLG competition, read-out: IC50, replicate 1.
Setting [4] is: KAI2C, YLG competition, read-out: IC50, replicate 2.
[5] abbreviates: KAI2C, YLG competition, read-out: IC50, replicate 3.
Setting [6] is: KAI2C, average of 3 replicates, read-out: IC50, average.
Where [7] appears, read: KAI2d1, YLG competition, read-out: IC50, replicate 1.
[8] abbreviates: KAI2d1, YLG competition, read-out: IC50, replicate 2.
[9] abbreviates: KAI2d1, YLG competition, read-out: IC50, replicate 3.
Setting [10] is: KAI2d1, average of 3 replicates, read-out: IC50, average.
Where [11] appears, read: KAI2d2, YLG competition, read-out: IC50, replicate 1.
The mark [12] stands for this setting: KAI2d2, YLG competition, read-out: IC50, replicate 2.
Where [13] appears, read: KAI2d2, YLG competition, read-out: IC50, replicate 3.
Where [14] appears, read: KAI2d2, average of 3 replicates, read-out: IC50, average.
[15] abbreviates: KAI2d3, YLG competition, read-out: IC50, replicate 1.
Setting [16] is: KAI2d3, YLG competition, read-out: IC50, replicate 2.
Setting [17] is: KAI2d3, YLG competition, read-out: IC50, replicate 3.
The mark [18] stands for this setting: KAI2d3, average of 3 replicates, read-out: IC50, average.
The mark [19] stands for this setting: KAI2d4, YLG competition, read-out: IC50, replicate 1.
Setting [20] is: KAI2d4, YLG competition, read-out: IC50, replicate 2.
The mark [21] stands for this setting: KAI2d4, YLG competition, read-out: IC50, replicate 3.
Setting [22] is: KAI2d4, average of 3 replicates, read-out: IC50, average.
Where [23] appears, read: Supplementary Table 7, binding affinities between ShHTL7 and agonists by SPR, read-out: KD/μM.
Setting [24] is: Supplementary Fig. 10 source data, methanol/PBS pH 7.4, 26 °C.

Sequence of ShHTL7 (A0A0M3PNA2 entry or part of it): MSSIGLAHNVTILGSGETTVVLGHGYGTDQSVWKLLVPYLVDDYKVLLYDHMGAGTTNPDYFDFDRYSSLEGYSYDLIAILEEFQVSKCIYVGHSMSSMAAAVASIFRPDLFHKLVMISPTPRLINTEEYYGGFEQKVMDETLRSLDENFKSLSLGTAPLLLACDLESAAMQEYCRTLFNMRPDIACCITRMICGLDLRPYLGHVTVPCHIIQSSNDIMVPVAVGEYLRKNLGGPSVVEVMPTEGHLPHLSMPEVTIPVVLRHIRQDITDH

In general, IC50 refers to the concentration at which inhibition is half-maximal. Consider `CC1=CC(OC(=O)N2CCN(C(=O)COc3ccc(Br)cc3C)CC2)CC1=O` (centres unmarked) [4g], for which, in the data set with ShHTL7-SMAX1 interaction, the “induction of ShHTL7-SMAX1 interaction (Y2H)” value was “only weak ligand-induced interactions”. The Kd on ShHTL7 amounted to 34.8 ± 3.9 µM. Also, the IC50 in data set [1] (setting [3]) worked out at 53.3 µM; in data set [1] (setting [4]), 49.1 µM; in data set [1] (setting [5]) it was 43 µM; in data set [1] (setting [6]), 48.5 µM; in data set [1] (setting [7]), 27.1 µM; in data set [1] (setting [8]) it was 24.4 µM. In addition, the half-inhibitory concentration (IC50) in data set [1] (setting [9]) stood at 23.2 µM; in data set [1] (setting [10]) it was 24.9 µM; in data set [1] (setting [11]), 62.3 µM; in data set [1] (setting [12]), 72.7 µM; in data set [1] (setting [13]), 74.9 µM; in data set [1] (setting [14]) it was 70 µM. Besides, the concentration for half-maximal inhibition (IC50) in data set [1] (setting [15]) stood at 57.1 µM; in data set [1] (setting [16]), 36.6 µM; in data set [1] (setting [17]), 53.9 µM; in data set [1] (setting [18]), 49.2 µM; in data set [1] (setting [19]) it was 77.3 µM; in data set [1] (setting [20]), 85.3 µM. Besides, the values for the IC50 in data set [1] (setting [21]) and in data set [1] (setting [22]) were 76.1 µM and 79.6 µM, respectively. For the same molecule, the “reactivity in methanol/PBS” value in data set [2] is “no apparent hydrolysis was observed in 6 days”. In addition, the half-life at 0.5 mM in data set [2] (methanol/phosphate-buffered saline mixture, Supplementary Fig. 10 source data, methanol/PBS pH 7.4, 26 °C, read-out: half-life time (t1/2), source data average (converted)) is > 144 h.
In the case of `CC1=CC(OC(=O)N2CCN(C(=O)COc3ccc(Br)cc3C)CC2)N(C)C1=O` (centres unmarked) [4h], the Kd at ShHTL7 (setting [23]) was 12.1 ± 0.94 µM. Moreover, the IC50 is 23.3 µM in data set [1] (setting [3]); 36.9 µM in data set [1] (setting [4]); 38.5 µM in data set [1] (setting [5]); 32.9 µM in data set [1] (setting [6]); 24.7 µM in data set [1] (setting [7]); 22.1 µM in data set [1] (setting [8]). The IC50 was 27.9 µM in data set [1] (setting [9]); 24.9 µM in data set [1] (setting [10]); 71.4 µM in data set [1] (setting [11]); 67.3 µM in data set [1] (setting [12]); 71.7 µM in data set [1] (setting [13]); 70.1 µM in data set [1] (setting [14]). Further, the IC50 is 30.6 µM in data set [1] (setting [15]); 41.8 µM in data set [1] (setting [16]); 41.3 µM in data set [1] (setting [17]); 37.9 µM in data set [1] (setting [18]); > 100 µM in data set [1] (setting [19]); > 100 µM in data set [1] (setting [20]). The IC50 in data set [1] (setting [21]) and in data set [1] (setting [22]) was > 100 µM in each case. Moreover, in data set [2] (1:3 methanol and PBS (10 mM) pH 7.4, HPLC), the “half-life time (t1/2)” value is recorded as 1.1 h. The “half-life time (t1/2), source data average” value in data set [2] (setting [24]) is given as 1.095 h.
In the case of `CC1=CC(CC(=O)N2CCN(C(=O)COc3ccc(Br)cc3C)CC2)OC1=O` (centres unmarked) [4i], the “induction of ShHTL7-SMAX1 interaction (Y2H)” value in the data set with ShHTL7-SMAX1 interaction is “almost no ligand-induced interactions were observed”. Further, at ShHTL7 (setting [23]), the Kd was 2.93 ± 0.087 µM. Moreover, the IC50 in data set [1] (setting [3]) worked out at 48.7 µM; in data set [1] (setting [4]), 57 µM; in data set [1] (setting [5]), 49.5 µM; in data set [1] (setting [6]) it was 51.7 µM; in data set [1] (setting [7]), 24 µM; in data set [1] (setting [8]), 16.7 µM. The IC50 in data set [1] (setting [9]) came out at 20.1 µM; in data set [1] (setting [10]) it was 20.3 µM; in data set [1] (setting [11]), 54.2 µM; in data set [1] (setting [12]), 57.7 µM; in data set [1] (setting [13]), 57.5 µM; in data set [1] (setting [14]), 56.5 µM. The IC50 in data set [1] (setting [15]) worked out at 51.4 µM; in data set [1] (setting [16]), 41.1 µM; in data set [1] (setting [17]), 40.4 µM; in data set [1] (setting [18]), 44.3 µM; in data set [1] (setting [19]), 30.7 µM; in data set [1] (setting [20]), 31.7 µM. In addition, the IC50 in data set [1] (setting [21]) amounted to 26.9 µM; in data set [1] (setting [22]) it was 29.8 µM. Also, the “reactivity in methanol/PBS” value in data set [2] is “no apparent hydrolysis was observed in 6 days”. In data set [2] (setting [24]), the “half-life time (t1/2), source data average” value was >144 h.

(Values after publication PMC9271048, “Probing strigolactone perception mechanisms with rationally designed small-molecule agonists stimulating germination of root parasitic weeds” (Nature Communications, 2022).)
